In brackets after ≈: the same amount, converted by molar mass. Like-named read-outs stand apart in the source and are kept apart here.
Legend:
[1] = test system: ANKA strain of P. berghei; assay: Single dose STI in vivo screen in infected mice; parameters: species or system Plasmodium berghei; details: for Survival (days) 10 mg/kg po: single 10 mg/kg po in 3% ethanol and 7% Tween 80; for Survival (days) 10 mg/kg po / Survival (days) 10 mg/kg SSV po / Survival (days) 10 mg/kg sc: untreated 6-7 days; for Activity (%) 10 mg/kg po: single 10 mg/kg po in 3% ethanol and 7% Tween 80 on day 1 post-infection; for Activity (%) 10 mg/kg po / Activity (%) 10 mg/kg SSV po / Activity (%) 10 mg/kg sc: percent reduction in parasitemia on day 3; for Survival (days) 10 mg/kg SSV po: single 10 mg/kg po in SSV; for Activity (%) 10 mg/kg SSV po: single 10 mg/kg po in standard suspending vehicle (SSV) on day 1 post-infection; for Survival (days) 10 mg/kg sc: single 10 mg/kg sc in 3% ethanol and 7% Tween 80; for Activity (%) 10 mg/kg sc: single 10 mg/kg sc in 3% ethanol and 7% Tween 80 on day 1 post-infection
[2] = test system: chloroquine-sensitive NF54 strain of P. falciparum; assay: In vitro antimalarial semiautomated microdilution assay ([3H]-hypoxanthine incorporation), NF54 strain; assay type: cell-based, Plasmodium falciparum; details: for IC50: Plasmodium falciparum
Summary of the method: (§1)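 Asynchronous stock-culture parasites (intraerythrocytic forms), serial compound dilutions; readout [3H]-hypoxanthine uptake; IC50 via Logit regression.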

[3] = test system: chloroquine-resistant K1 strain of P. falciparum; assay: In vitro antimalarial semiautomated microdilution assay ([3H]-hypoxanthine incorporation), K1 strain; assay type: cell-based, Plasmodium falciparum; details: for IC50: Plasmodium falciparum
Summary of the method: as §1

[4] = chloroquine-sensitive NF54 strain, 72 h incubation, read-out: IC50 (ng/ml) NF54
[5] = chloroquine-resistant K1 strain, 72 h incubation, read-out: IC50 (ng/ml) K1
[6] = NF54, 72 h, read-out: IC50 (ng/ml) NF54, chloroquine-sensitive NF54 strain, 72 h incubation
[7] = K1, 72 h, read-out: IC50 (ng/ml) K1, chloroquine-resistant K1 strain, 72 h incubation

Row | Structure (SMILES) | Survival (days) 10 mg/kg po [1] | Activity (%) 10 mg/kg po [1] | Survival (days) 10 mg/kg SSV po [1] | Activity (%) 10 mg/kg SSV po [1] | Survival (days) 10 mg/kg sc [1] | Activity (%) 10 mg/kg sc [1] | IC50 [2, 4] | IC50 [3, 5] | IC50 [2, 6] | IC50 [3, 7] | Survival (days) 10 mg/kg po ([1]; hydrochloride, 10 mg/kg) | Activity (%) 10 mg/kg po ([1]; hydrochloride, 10 mg/kg) | Survival (days) 10 mg/kg SSV po ([1]; hydrochloride, 10 mg/kg) | Activity (%) 10 mg/kg SSV po ([1]; hydrochloride, 10 mg/kg) | Survival (days) 10 mg/kg sc ([1]; hydrochloride, 10 mg/kg) | Activity (%) 10 mg/kg sc ([1]; hydrochloride, 10 mg/kg) | IC50 (ng/ml) NF54 ([2]; chloroquine-sensitive NF54 strain, 72 h incubation, hydrochloride) | IC50 (ng/ml) K1 ([3]; chloroquine-resistant K1 strain, 72 h incubation, hydrochloride)
1 | O=C1c2ccccc2C(=O)N1C[C@H]1CC[C@]2(CC1)OOC1(O2)C2CC3CC(C2)CC1C3 (stereo partly drawn) [OZ146] | 7.0 days | 62% | 6.3 days | 40% | 9.0 days | 91% | 2.7 ng/mL (≈ 0.00638 µM) | 2.2 ng/mL (≈ 0.00519 µM) |  |  |  |  |  |  |  |  |  | 
2 | O=C(OC1CCC2(CC1)OOC1(O2)C2CC3CC(C2)CC1C3)n1ccnc1 (stereo not drawn) [OZ147, Adamantane-2-spiro-3′-1′,2′,4′-trioxaspiro[4.5]decane-8′-yl imidazole-1-carboxylate] | 8.0 days | 85% | 8.0 days | 71% | 19.7 days | 99.89% | 1.8 ng/mL (≈ 0.00481 µM) | 1.1 ng/mL (≈ 0.00294 µM) |  |  |  |  |  |  |  |  |  | 
3 | O=C1OC2(CCC3(CC2)OOC2(O3)C3CC4CC(C3)CC2C4)c2ccccc21 (stereo not drawn) [OZ149, Adamantane-2-spiro-3′-1′,2′,4′-trioxaspiro[4.5]decane-8′-spiro-1″-3″-oxo-3″H-isobenzofuran] | 7.7 days | 64% | 6.0 days | 3% | 14.3 days | 87% | 8.8 ng/mL (≈ 0.023 µM) | 8 ng/mL (≈ 0.0209 µM) |  |  |  |  |  |  |  |  |  | 
4 | O=C(NCCO)[C@H]1CC[C@]2(CC1)OOC1(O2)C2CC3CC(C2)CC1C3 (stereo partly drawn) [OZ155] | 6.3 days | 53% | 7.0 days | 53% | 8.3 days | 73% |  |  | > 10 ng/mL | 12 ng/mL (≈ 0.0341 µM) |  |  |  |  |  |  |  | 
5 | C(CNC1CCC2(CC1)OOC1(O2)C2CC3CC(C2)CC1C3)CN1CCOCC1 (stereo not drawn) [OZ161] | 7.0 days | 59% | 6.7 days | 46% | 12.7 days | 99.96% |  |  | 0.5 ng/mL (≈ 0.00123 µM) | 0.4 ng/mL (≈ 0.000984 µM) |  |  |  |  |  |  |  | 
6 | CCOC(=O)c1ccc([C@H]2CC[C@]3(CC2)OOC2(O3)C3CC4CC(C3)CC2C4)cc1 (stereo partly drawn) [OZ164] |  | 11% | 5.7 days | 0% |  | 7% |  |  | > 10 ng/mL | 9 ng/mL (≈ 0.0218 µM) |  |  |  |  |  |  |  | 
7 | O=C(O)c1ccc([C@H]2CC[C@]3(CC2)OOC2(O3)C3CC4CC(C3)CC2C4)cc1 (stereo partly drawn) [OZ165] | 6.3 days | 18% | 6.0 days | 3% | 5.7 days | 9% |  |  | > 10 ng/mL | 39 ng/mL (≈ 0.101 µM) |  |  |  |  |  |  |  | 
8 | CCOC(=O)c1ccc(OC[C@H]2CC[C@]3(CC2)OOC2(O3)C3CC4CC(C3)CC2C4)cc1 (stereo partly drawn) [OZ166] | 6.7 days | 11% | 6.3 days | 0% | 5.7 days | 4% |  |  | > 10 ng/mL | 28 ng/mL (≈ 0.0633 µM) |  |  |  |  |  |  |  | 
9 | O=C1c2ccccc2C(=O)N1C[C@H]1CC[C@@]2(CC1)OOC1(O2)C2CC3CC(C2)CC1C3 (stereo partly drawn) [OZ167] | 6.0 days | 0% | 6.0 days | 6% | 7.3 days | 97% |  |  | > 10 ng/mL | 6.7 ng/mL (≈ 0.0158 µM) |  |  |  |  |  |  |  | 
10 | CC1(C)CC(NC2CCC3(CC2)OOC2(O3)C3CC4CC(C3)CC2C4)CC(C)(C)N1 (stereo not drawn) [OZ171] | 9.0 days | 98% | 7.0 days | 85% | 9.7 days | 99.94% |  |  | 1.4 ng/mL (≈ 0.00334 µM) | 1.3 ng/mL (≈ 0.00311 µM) |  |  |  |  |  |  |  | 
11 | N=C(N)NN=C1CCC2(CC1)OOC1(O2)C2CC3CC(C2)CC1C3 (stereo not drawn) [OZ172] | 8.0 days | 68% | 10.3 days | 82% | 10.3 days | 100% |  |  | 5 ng/mL (≈ 0.015 µM) | 3.5 ng/mL (≈ 0.0105 µM) |  |  |  |  |  |  |  | 
12 | COCC(=O)N(Cc1ccccc1)C1CCC2(CC1)OOC1(O2)C2CC3CC(C2)CC1C3 (stereo not drawn) [OZ173] | 7.0 days | 15% | 6.7 days | 0% | 9.7 days | 80% |  |  | 32 ng/mL (≈ 0.0725 µM) | 58 ng/mL (≈ 0.131 µM) |  |  |  |  |  |  |  | 
13 | COCC(=O)N(C1CCCCC1)C1CCC2(CC1)OOC1(O2)C2CC3CC(C2)CC1C3 (stereo not drawn) [OZ174] | 6.7 days | 0% | 7.3 days | 15% | 10.3 days | 90% |  |  | 34 ng/mL (≈ 0.0784 µM) | 27 ng/mL (≈ 0.0623 µM) |  |  |  |  |  |  |  | 
14 | O=C(O)c1ccc(OC[C@H]2CC[C@]3(CC2)OOC2(O3)C3CC4CC(C3)CC2C4)cc1 (stereo partly drawn) [OZ176] | 7.0 days | 11% | 7.7 days | 18% | 7.0 days | 24% |  |  | 35 ng/mL (≈ 0.0844 µM) | 25 ng/mL (≈ 0.0603 µM) |  |  |  |  |  |  |  | 
15 | CS(=O)(=O)c1ccc([C@H]2CC[C@]3(CC2)OOC2(O3)C3CC4CC(C3)CC2C4)cc1 (stereo partly drawn) [OZ178] | 7.3 days | 32% | 7.3 days | 23% | 10.0 days | 31% |  |  | 27 ng/mL (≈ 0.0645 µM) | 21 ng/mL (≈ 0.0502 µM) |  |  |  |  |  |  |  | 
16 | CC1(C)COC(c2ccc([C@H]3CC[C@]4(CC3)OOC3(O4)C4CC5CC(C4)CC3C5)cc2)=N1 (stereo partly drawn) [OZ180] |  |  |  |  |  |  |  |  |  |  | 13.7 days | 99.91% | 12.7 days | 97% | 10.3 days | 65% | 2.8 ng/mL (≈ 0.0064 µM) | 3.7 ng/mL (≈ 0.00846 µM)
17 | O=C(OCCn1ccnc1)C1CCC2(CC1)OOC1(O2)C2CC3CC(C2)CC1C3 (stereo not drawn) [OZ182] | 8.0 days | 91% | 7.3 days | 96% | 7.7 days | 95% |  |  | 5.5 ng/mL (≈ 0.0137 µM) | 4.5 ng/mL (≈ 0.0112 µM) |  |  |  |  |  |  |  | 
18 | O=C(NO)c1ccc([C@H]2CC[C@]3(CC2)OOC2(O3)C3CC4CC(C3)CC2C4)cc1 (stereo partly drawn) [OZ183] | 6.0 days | 65% | 6.0 days | 19% | 8.3 days | 81% |  |  | 2.1 ng/mL (≈ 0.00526 µM) | 0.8 ng/mL (≈ 0.002 µM) |  |  |  |  |  |  |  | 
19 | C1CC1CNC1CCC2(CC1)OOC1(O2)C2CC3CC(C2)CC1C3 (stereo not drawn) [OZ184] | 6.7 days | 54% | 7.0 days | 59% | 8.7 days | 97% |  |  | 1.4 ng/mL (≈ 0.0042 µM) | 1 ng/mL (≈ 0.003 µM) |  |  |  |  |  |  |  | 
20 | C1C2CC3CC1CC(C2)C31OOC2(CCC(NC3CC3)CC2)O1 (stereo not drawn) [OZ185] | 7.7 days | 86% | 6.7 days | 56% | 10.7 days | 99.96% |  |  | 1.4 ng/mL (≈ 0.00438 µM) | 1.1 ng/mL (≈ 0.00344 µM) |  |  |  |  |  |  |  | 
21 | COCC(=O)N[C@H]1CC[C@]2(CC1)OOC1(O2)C2CC3CC(C2)CC1C3 (stereo partly drawn) [OZ186] | 8.0 days | 87% | 9.0 days | 96% | 8.0 days | 67% |  |  | > 10 ng/mL | > 10 ng/mL |  |  |  |  |  |  |  | 
22 | CN(C)C(=O)N[C@H]1CC[C@]2(CC1)OOC1(O2)C2CC3CC(C2)CC1C3 (stereo partly drawn) [OZ187] | 7.7 days | 77% | 10.0 days | 94% | 7.0 days | 77% |  |  | 6.8 ng/mL (≈ 0.0194 µM) | 4 ng/mL (≈ 0.0114 µM) |  |  |  |  |  |  |  | 
